According to the NIST ThermoML archive (doi:10.1021/je800110r):

Conditions: 303.15 K, Liquid, Vibrating tube method

CCCCCCCCCC [decane]
Conditions | mass density [kg/m3]
29181 kPa | 743.5
29208 kPa | 743.5
29234 kPa | 743.6
29258 kPa | 743.5
29278 kPa | 743.6
29302 kPa | 743.6
29320 kPa | 743.5
29341 kPa | 743.6
29363 kPa | 743.6
29384 kPa | 743.6
29402 kPa | 743.6
29426 kPa | 743.6
29444 kPa | 743.7
29466 kPa | 743.6
29484 kPa | 743.7
29502 kPa | 743.7
29530 kPa | 743.8
29548 kPa | 743.7
29575 kPa | 743.7
29600 kPa | 743.7
29618 kPa | 743.8
29640 kPa | 743.8
29658 kPa | 743.8
29685 kPa | 743.9
29703 kPa | 743.8
29722 kPa | 743.9
29747 kPa | 743.9
29774 kPa | 743.9
29790 kPa | 743.8
29812 kPa | 743.8
29828 kPa | 744
29859 kPa | 743.9
29883 kPa | 744
29905 kPa | 744
29930 kPa | 743.9
29952 kPa | 744
29967 kPa | 744
29987 kPa | 743.9
30005 kPa | 744
30023 kPa | 744.1
30051 kPa | 743.9
30077 kPa | 744.1
30099 kPa | 744
30125 kPa | 744
30150 kPa | 744.2
30169 kPa | 744.1
30198 kPa | 744.2
30220 kPa | 744.1
30248 kPa | 744.2
30267 kPa | 744.2
30290 kPa | 744.2
30322 kPa | 744.2
30348 kPa | 744.3
30374 kPa | 744.3
30397 kPa | 744.2
30420 kPa | 744.3
30443 kPa | 744.3
30468 kPa | 744.4
30491 kPa | 744.4
30516 kPa | 744.3
30533 kPa | 744.4
30553 kPa | 744.4
30582 kPa | 744.3
30601 kPa | 744.5
30621 kPa | 744.4
30644 kPa | 744.5
30665 kPa | 744.4
30695 kPa | 744.5
30715 kPa | 744.3
30739 kPa | 744.4
30762 kPa | 744.5
30789 kPa | 744.7
30809 kPa | 744.5
30833 kPa | 744.5
30853 kPa | 744.7
30884 kPa | 744.6
30908 kPa | 744.6
30931 kPa | 744.6
30956 kPa | 744.5
30980 kPa | 744.6
31007 kPa | 744.6
31031 kPa | 744.6
31062 kPa | 744.8
31083 kPa | 744.7
31111 kPa | 744.7
31134 kPa | 744.6
31157 kPa | 744.7
31178 kPa | 744.8
31212 kPa | 744.7
31231 kPa | 744.8
31252 kPa | 744.9
31271 kPa | 744.8
31293 kPa | 744.9
31311 kPa | 744.9
31327 kPa | 744.8
31348 kPa | 744.9
31363 kPa | 744.9
31381 kPa | 744.9
31400 kPa | 744.9
31425 kPa | 744.9
31446 kPa | 745
31468 kPa | 745
31490 kPa | 744.9
31515 kPa | 744.9
31540 kPa | 745
31565 kPa | 745
31588 kPa | 745
31610 kPa | 745.1
31640 kPa | 745.2
31660 kPa | 745.1
31688 kPa | 745.1
31707 kPa | 745.2
31725 kPa | 745.2
31754 kPa | 745.1
31769 kPa | 745.2
31798 kPa | 745.1
31817 kPa | 745.2
31842 kPa | 745.2
31861 kPa | 745.1
31887 kPa | 745.1
31906 kPa | 745.3
31925 kPa | 745.3
31950 kPa | 745.3
31972 kPa | 745.3
31995 kPa | 745.3
32014 kPa | 745.3
32040 kPa | 745.4
32059 kPa | 745.4
32079 kPa | 745.4
32098 kPa | 745.3
32128 kPa | 745.3
32150 kPa | 745.4
32176 kPa | 745.3
32198 kPa | 745.5
32228 kPa | 745.4
32251 kPa | 745.4
32274 kPa | 745.5
